Read-outs that look alike come from different tables or passages of the source. Where a SMILES comes first, the peptide text is derived from it. Where no end group is shown, it is not given here.
Tests used:
[1] = tested on: HL-60 cells differentiated into the neutrophil-like cells; experiment: β-hexosaminidase-secreting activity of neutrophil-like differentiated HL-60 cells; format: cell-based, human; settings: for Activity (β-hexosaminidase-secreting activity class): lowest concentration class at which secretion was confirmed
Source text: (1) Culture of Cell and Differentiation Into Neutrophil-like Cell
In this time, the cells were subcultured at a cell density of 1.0×10^5 cells/ml to 1.5×10^6 cells/ml, the number of cells was counted using a microscope, and the state of the cells was also confirmed.
The HL-60 cells were differentiated into neutrophil-like cells by setting the cell density in the flask to about 1.0×10^6 cells/ml, adding dibutylyl-cAMP (db-cAMP) as a differentiation-inducing agent so as to have a final concentration of 500 μM, and incubating the cells in the presence of CO2 at 37° C. for 3 days.
(2) Stimulation of Cell and Measurement of β-Hexosaminidase-secreting Activity
The cells were collected by centrifuging the suspension of the differentiated HL-60 cells (1,000 rpm, 5 minutes, 4° C.). After that, the following operation was repeated three times to wash the cells: Hepes buffered Hank's solution (HBHS) containing ice-cooled 0.1% BSA (1.2 mM CaCl2.2H2O, 5.4 mM KCl, 0.44 mM KH2PO4, 0.49 mM MgCl2.6H2O, 0.41 mM MgSO4.7H2O, 136.9 mM NaCl, 0.34 mM Na2HPO4, 10 mM Hepes, 4.2 mM NaHCO3, 5.5 mM D-glucose, pH 7.4) was added to the cells; the mixture was suspended by inversion; and the mixture was centrifuged again (1,000 rpm, 5 minutes, 4° C.). Subsequently, HBHS was added so that the mixture has a cell density of 5.6×10^6 cells/ml and suspended. Then, DNase I and cytochalasin B were each added so as to have a final concentration of 5 μg/ml, and the cell suspension was dispensed in an amount of 90 μl (5×10^5 cells) on ice. […] After the cell stimulation for 10 minutes, 100 μl of an ice-cooled stop solution (25 mM Tris, 123 mM NaCl, 2.7 mM KCl, pH 7.4) were added, and immediately, the mixture was centrifuged (5,000 rpm, 1 minute, 4° C.). 200 μl of the obtained supernatant were transferred to a new tube.
The amount of β-hexosaminidase released in the supernatant of the reaction solution was measured by an enzyme reaction using p-nitrophenyl-N-acetyl-μ-D-glucosaminide as a substrate (Non-patent Document 12). That is, the supernatant of the reaction solution was dispensed in an amount of 90 μl to a 96-well plate. 60 μl of a substrate solution (10 mM p-nitrophenyl-N-acetyl-μ-D-glucosaminide, 40 mM citrate, 70 mM Na2HPO4, pH 4.5) were added to each well, followed by incubation at 37° C. for 1 hour. After the reaction, 100 μl of a stop solution (0.4 M glycine, pH 10.7) were added to each well and a color of the released p-nitrophenol was developed. The color development was measured with a plate reader at adsorption at 405 nm (reference: 492 nm). The all amount of β-hexosaminidase contained in the cells was quantified by treating the cells with Triton X-100 having a final concentration of 0.05%. In addition, the amount of β-hexosaminidase secreted by stimulation of 10 μM fMLP was also measured, and the ratio of the secretion amount by stimulation with each peptide to the above sectretion amount by stimulation with fMLP.

[2] = tested on: differentiated HL-60 cells; experiment: migration activity (Chemotaxis Index) of differentiated HL-60 cells; format: cell-based, human
Experimental: (3) Measurement of Migration Activity
The cells were collected by centrifuging the suspension of the differentiated HL-60 cells (1,000 rpm, 5 minutes, 4° C.). After that, the following operation was repeated three times to wash the cells: 10% FBS-RPMI1640 was added to the cells; the mixture was suspended by inversion; and the mixture was centrifuged again (1,000 rpm, 5 minutes, 4° C.). Then, a medium (10% FBS-RPMI1640) was added so that a cell density was 4×10^6 cells/ml, thereby a cell suspension was prepared. Subsequently, 1 ml of each peptide solution (dissolved in 10% FBS-RPMI 1640) was transferred to each well of a 24-well plate, and the plate was incubated at 37° C. for 20 minutes. After that, 500 μl of the cell suspension (2×10^6 cells) were put in Chemotaxicell (KURABO […] LTD., 3 μm) and the Chemotaxicell was set in a plate, followed by incubation in the presence of 5% CO2 at 37° C. for 1 hour. Then, the Chemotaxicell was removed and the solution in each well of the plate was pipetted. The cells migrated to the plate side was suspended well and the number of the cells were measured. Note that the migration activity by the peptide was represented by a ratio of the number of the cells to the number of the cells passing the Chemotaxicell at the time of non-stimulation (Chemotaxis Index, CI).

[3] = differentiated HL-60 cells, read-out: EC50, β-hexosaminidase-secreting activity
[4] = neutrophil-like differentiated HL-60 cells, Table 1, read-out: EC50 (μM), β-hexosaminidase-secreting activity
[5] = neutrophil-like differentiated HL-60 cells

Compound | EC50 [1, 3] [µM] | concentration of migration activity compared with that of β-hexosaminidase-secreting activity [2] | desensitization of migration activity with increasing concentration of the peptide [2] | β-hexosaminidase-secreting activity of C-terminally extended peptide compared to the peptide before the extension ([1]; differentiated HL-60 cells) | EC50 [1, 4] [µM] | Activity (β-hexosaminidase-secreting activity class) [1, 5]
MFPLARNALSSLKIQSILQSMARH [No. 048] | 0.1 | confirmed at the almost same concentration | – | – | – | –
CC[C@H](C)[C@H](NC(=O)[C@H](CS)NC(=O)[C@H](CC(C)C)NC(=O)[C@H](CCC(N)=O)NC(=O)[C@@H]1CCCN1C(=O)[C@H](CO)NC(=O)[C@H](Cc1ccccc1)NC(=O)[C@H](Cc1c[nH]cn1)NC(=O)[C@H](C)NC(=O)[C@H](CCCNC(=N)N)NC(=O)[C@H](CC(C)C)NC(=O)[C@H](CS)NC(=O)[C@H](Cc1c[nH]cn1)NC(=O)[C@H](CCCNC(=N)N)NC(=O)CNC(=O)[C@@H](NC(=O)[C@H](Cc1c[nH]cn1)NC(=O)[C@H](CCCNC(=N)N)NC(=O)[C@H](CC(C)C)NC(=O)[C@H](CC(C)C)NC(=O)[C@H](CC(C)C)NC(=O)[C@H](C)NC(=O)[C@H](C)NC(=O)[C@@H](N)CCSC)C(C)C)C(=O)N[C@@H](CCCNC(=N)N)C(=O)N[C@@H](CC(N)=O)C(=O)N[C@@H](C)C(=O)N[C@H](C(=O)N1CCC[C@H]1C(=O)N[C@@H](CC(C)C)C(=O)O)C(C)C [No. 023] (H-MAALLLRHVGRHCLRAHFSPQLCIRNAVPL-OH; N-terminus and C-terminus assumed) | 0.3 | confirmed at the almost same concentration | subjected to desensitization completely | – | – | –
MLWNLLALHQIGQRTISTASHRHFKNKVPEKQK [No. 032] | 0.15 | confirmed at the concentration lower than the concentration at which β-hexosaminidase-secreting activity was confirmed | – | higher activity compared to the peptides before the extension | – | –
010 (MLGQSIRRFTTSVVRR) [compound 010] | – | – | – | – | > 40 | ● (a peptide in which the β-hexosaminidase-secreting activity was confirmed at a concentration of 10 μM or less)
013 (MALPLRPLTRGL) [compound 013] | – | – | – | – | > 30 | ● (a peptide in which the β-hexosaminidase-secreting activity was confirmed at a concentration of 10 μM or less)
027 (MQRAVSVVARLGFRLQAFPPALCRPLSC) [compound 027] | – | – | – | – | > 30 | ● (a peptide in which the β-hexosaminidase-secreting activity was confirmed at a concentration of 10 μM or less)
MFRRPVLQVLRQFVRH [No. 037] | 0.11 | confirmed at the almost same concentration | subjected to desensitization completely | – | – | –
044 (MAAPAVSGLSRQVRCFSTSVVRPF) [compound 044] | – | – | – | – | > 30 | ● (a peptide in which the β-hexosaminidase-secreting activity was confirmed at a concentration of 10 μM or less)
029 (MAAPRAGRGAGWSLRAWRALGGIRWGRRPRL) [compound 029] | – | – | – | – | > 50 | ● (a peptide in which the β-hexosaminidase-secreting activity was confirmed at a concentration of 10 μM or less)
017 (FTTFLTPAAYVLGNLKQFRRN) [compound 017] | – | – | – | – | > 40 | ▴ (a peptide in which the β-hexosaminidase-secreting activity was confirmed at a concentration of 100 μM or less)
MSVLTPLLLRGLTGSARRLPVPRAK [compound 007] | – | – | – | – | 8 | ∘ (a peptide in which the β-hexosaminidase-secreting activity was confirmed at a concentration of 1 μM or less)
MAAAALGQIWARKLLSVPWLLCGPRRY [compound 022] | – | – | – | – | 0.8 | ⊚ (a peptide in which the β-hexosaminidase-secreting activity was confirmed at a concentration of 300 nM or less)
MFPLVKSALNRLQVRSIQQTMARQSHQKRT [No. 031] | 0.2 | confirmed at the almost same concentration | – | higher activity compared to the peptides before the extension | – | –
MSVLTPLLLRGLTGSARRLPVPRAKIHSLPPEGK [No. 033] | 6 | – | – | higher activity compared to the peptides before the extension | – | –
MLWNLLALHQIGQRTISTASHRHFKNKVPEKQK [compound 032] | – | – | – | – | 0.15 | ⊚ (a peptide in which the β-hexosaminidase-secreting activity was confirmed at a concentration of 300 nM or less)
008 (MLGQSIRRFTTSVVR) [compound 008] | – | – | – | – | > 100 | ▴ (a peptide in which the β-hexosaminidase-secreting activity was confirmed at a concentration of 100 μM or less)
MQALRVSQALIRSFSSTARNR [compound 011] | – | – | – | – | 1.7 | ⊚ (a peptide in which the β-hexosaminidase-secreting activity was confirmed at a concentration of 300 nM or less)
003 (MASRLLRGAGTLAAQALRAR) [compound 003] | – | – | – | – | – | ▴ (a peptide in which the β-hexosaminidase-secreting activity was confirmed at a concentration of 100 μM or less)

Source: patent US7893199B2, “Peptides having neutrophil-stimulating activity” (National University Corporation Gunma University, priority 2006, dated 2011)
